Read-outs that look alike come from different tables or passages of the source.
Experiments:
[1] = system: IC patients; details: intravesical instillations; cited from earlier work
[2] = system: cancer patients; details: cited from earlier work
[3] = Uncharged fraction of lidocaine by Henderson-Hasselbalch equation; format: physicochemical
Text: For the acute-acting anesthetic to function properly, it typically needs to be in a pH environment that enables the chemical form of the drug to be neutral thereby allowing the molecule to traverse the membranes and gain access to the neurons underlying the bladder epithelium. To achieve this pH, a buffer must be provided so that the pH is sufficiently near to the isoelectric point of the chosen anesthetic to ensure that a sufficient portion of the acute-acting anesthetic is present in an uncharged state. A sufficient portion can minimally be 20% up to 100% in its uncharged state and those skilled in the art can use the drug's isoelectric point and the Henderson-Hasselbalch equation to calculate the minimal pH of the solution to achieve the 20% minimal uncharged amount. Preferably, the pH of the solution is such that at least about 40% of the acute-acting anesthetic is present in an uncharged state. […]. This buffering can be achieved by the addition of bicarbonate buffer, Tris (Tris(hydroxymethyl)aminomethane) buffer, MOPS buffer (3-(N-morpholino)propanesulfonic acid), HEPES (N-(2-hydroxyethyl)piperazine-N′-(2-ethanesulfonic acid) buffer, ACES (2-[(2-amino-2-oxoethyl)amino]ethanoesulfonic acid) buffer, ADA (N-(2-acetamido)-2-iminodiacetic acid) buffer, AMPSO (3-[(1,1-dimethyl-2-hydroxyethyl)amino]-2-propanesulfonic acid) buffer, BES (N,N-bis(2-hydroxyethyl)-2-aminoethanesulfonic acid buffer, Bicine (N,N-bis(2-hydroxyethylglycine) buffer, Bis-Tris (bis-(2-hydroxyethyl)imino-tris(hydroxymethyl)methane buffer, CAPS (3-(cyclohexylamino)-1-propanesulfonic acid) buffer, CAPSO (3-(cyclohexylamino)-2-hydroxy-1-propanesulfonic acid) buffer, CHES (2-(N-cyclohexylamino)ethanesulfonic acid) buffer, DIPSO (3-[N,N-bis(2-hydroxyethyl)amino]-2-hydroxy-propanesulfonic acid) buffer, HEPPS(N-(2-hydroxyethylpiperazine)-N′-(3-propanesulfonic acid), buffer, HEPPSO(N-(2-hydroxyethyl)piperazine-N′-(2-hydroxypropanesulfonic acid) buffer, MES (2-(N-morpholino)ethanesulfonic acid) buffer, triethanolamine buffer, imidazole buffer, glycine buffer, ethanolamine buffer, phosphate buffer, MOPSO (3-(N-morpholino)-2-hydroxypropanesulfonic acid) buffer, PIPES (piperazine-N,N′-bis(2-ethanesulfonic acid) buffer, POPSO (piperazine-N,N′-bis(2-hydroxypropaneulfonic acid) buffer; TAPS(N-tris[hydroxymethyl)methyl-3-aminopropanesulfonic acid) buffer, TAPSO (3-[N-tris(hydroxymethyl)methylamino]-2-hydroxy-propanesulfonic acid) buffer, TES (N-tris(hydroxymethyl)methyl-2-aminoethanesulfonic acid) buffer, tricine (N-tris(hydroxymethyl)methylglycine buffer), 2-amino-2-methyl-1,3-propanediol buffer, 2-amino-2-methyl-1-propanol buffer, or another buffer that can buffer the composition to be administered at the appropriate pH value. The buffer to be selected, and the concentration of the buffer to be used, can be chosen by one of ordinary skill in the art to buffer the composition to be administered at a pH value that is close to the isoelectric point of the local anesthetic. […]. For bupivacaine, it is 8.1. For etidocaine, it is 7.7. For flecamide, it is 9.3. Typically, the pH achieved by the use of the buffer is between about 7.0 and about 12.0. More typically, the pH achieved by the use of the buffer is between about 7.0 and about 9.5. Typically, when bicarbonate buffer is used, it is sodium bicarbonate buffer; however, other counterions can be used as described above.

[4] = system: IC patients; details: intravesical, interstitial cystitis; cited from earlier work

For C[S+](C)[O-] [DMSO, dimethylsulfoxide], the “IC patients treated with benefit” value [1] is given as roughly 50%.

In the case of O=S(=O)(O)CCS [Mesnex, mesna], the “frequency of adverse events (all AEs)” value ([2]; IV) is given as 85% and the “frequency of adverse events (all AEs)” value ([2]; oral) is given as 89%.

For CCN(CC)CC(=O)Nc1c(C)cccc1C [lidocaine], the lidocaine uncharged ([3]; pH 6.6) was 5%, the lidocaine uncharged ([3]; pH 7.0) was 10% and the lidocaine uncharged ([3]; pH 7.2) was 20%. For the same molecule, the lidocaine uncharged ([3]; pH 7.5) was 30%, the lidocaine uncharged ([3]; pH 7.7) was 40% and the lidocaine uncharged ([3]; pH 7.9) was 50%.

For heparin, the “patients treated in whom effective” value [4] is given as “approximately 50%”.
